Measurements taken from patent publication US11534412B2, “Application of totarol and pharmaceutical composition containing totarol” (Emergopharm SP. Z O.O. SP.K., priority 2017, dated 2022).

Test system: Enterococcus faecalis - clinical strain
Assay: Determination of the MIC value of totarol, broth dilution in 96-well plates with OD and quantitative culture
Assay type: cell-based
Conditions: for OD, average of 3 measurements: 620 nm
Protocol: Test of antibacterial activity of totarol using DMI (dimethylisosorbide) as a solvent.
1 ml of the suspension was collected to 9 ml of a TSB broth ([…]). Suspensions with a dilution of 10^−6 were prepared in the described way. A suspension with a cell density of 10^5 cfu/ml was selected for further investigations. For each strain, 2 96-well plates were prepared: the first one was intended for the OD measurement, the second one—for quantitative culture on solid media. • A/ to wells B1-D1, B2-D2 and B-D 4-11, 100 µl of the broth were added; • B/ to wells B3-D3, 200 µl of the broth were added; • C/ to wells B1-D1, 1 µl of stock I was added; • D/ to wells B2-D2, 1 µl of stock II was added; • E/ to wells B3-D3, 2 µl of stock III were added. Using a multichannel pipette, 100 µl of the sample were collected from each of the B3-D3 wells and placed in wells B4-D4 (mixing by sucking the content in and letting it out for 5 times). The pipette tips were replaced and 100 µl of the content were collected from of the B4-D4 wells, and placed in wells B5-D5, mixing as previously. These operations were repeated through the wells B11-D11. The content in the B11-D11 wells was mixed, and 100 µl of the fluid were collected and discarded. This way, a series of dilutions of totarol samples in DMI in the range of 0.32% to 0.0004% was obtained. Then, 100 µl of a corresponding bacterial culture were added to the wells B, C, D 1-11. In consequence, a change in the final concentration range occurred, to 0.16%-0.0002%. Control Preparation: • Negative control: 100 µl of the broth+1 pl DMI were added to the Al well. • Positive control (I): 100 µl of the broth with the bacterial culture were added to the wells E1-G1. • Diluent positive control (II): 100 µl of the broth with the bacterial culture+1 pl DMI were added to the wells E2-G2. The OD value in the individual wells was read at the wavelength of 620 nm (read time 0). From the second 96-well plate, a culture was inoculated by a quantitative method from every dilution onto a well with a proper solid medium, and incubated for 24 h at 37° C. under aerobic or anaerobic conditions, depending on the strain. The plates were incubated under aerobic conditions or in an atmosphere of an elevated CO2 concentration (for the strains requiring it) in an incubator at 37° C. The OD was read after 8 h, 16 h, and 24 h, respectively. Before every OD measurement, the contents of the wells were mixed delicately. In parallel to the OD readout, cultures we inoculated from the second 96-well plate, from every dilution, into plates with a proper solid medium, and incubated for 24 h at 37° C., under aerobic or anaerobic conditions. For the analysis of the experimental results, an average value of the OD measurement obtained from three repetitions in the individual times (0, 8, 16, and 24 h) for the individual microbes (Gardnerella vaginalis, Streptococcus agalactiae, Enterococcus faecalis, Lactobacillus gasseri/plantarum) was taken. Additionally, the number of bacteria grown on solid media was taken into account. The results of the tests confirm the specific, concentration-dependent selectiveness, and the high antibacterial effectiveness of totarol against the pathogenic microorganisms: Gardnerella vaginalis, Streptococcus agalactiae, Enterococcus faecalis at low MIC values safe for bacteria of the Lactobacillus genus.

SMILES: CC(C)c1c(O)ccc2c1CC[C@H]1C(C)(C)CCC[C@]21C [Totarol, totarol]
- MIC value (E. faecalis): 0.0025%
- Inoculation cfu/ml (totarol 0.0002%, 0 h): 4 × 10^5 cfu/ml
- OD, average of 3 measurements (totarol 0.0002%, 0 h): 0.292
- Inoculation cfu/ml (totarol 0.0002%, 8 h): 4.1 × 10^5 cfu/ml
- OD, average of 3 measurements (totarol 0.0002%, 8 h): 0.295
- Inoculation cfu/ml (totarol 0.0002%, 16 h): 2.1 × 10^6 cfu/ml
- OD, average of 3 measurements (totarol 0.0002%, 16 h): 0.490
- Inoculation cfu/ml (totarol 0.0002%, 24 h): 1.6 × 10^7 cfu/ml
- OD, average of 3 measurements (totarol 0.0002%, 24 h): 0.681
- Inoculation cfu/ml (totarol 0.0004%, 0 h): 3 × 10^5 cfu/ml
- OD, average of 3 measurements (totarol 0.0004%, 0 h): 0.298
- Inoculation cfu/ml (totarol 0.0004%, 8 h): 2.1 × 10^5 cfu/ml
- OD, average of 3 measurements (totarol 0.0004%, 8 h): 0.303
- Inoculation cfu/ml (totarol 0.0004%, 16 h): 1.1 × 10^6 cfu/ml
- OD, average of 3 measurements (totarol 0.0004%, 16 h): 0.491
- Inoculation cfu/ml (totarol 0.0004%, 24 h): 1.9 × 10^7 cfu/ml
- OD, average of 3 measurements (totarol 0.0004%, 24 h): 0.677
- Inoculation cfu/ml (totarol 0.0007%, 0 h): 2.5 × 10^5 cfu/ml
- OD, average of 3 measurements (totarol 0.0007%, 0 h): 0.288
- Inoculation cfu/ml (totarol 0.0007%, 8 h): 3.1 × 10^5 cfu/ml
- OD, average of 3 measurements (totarol 0.0007%, 8 h): 0.291
- Inoculation cfu/ml (totarol 0.0007%, 16 h): 3.8 × 10^5 cfu/ml
- OD, average of 3 measurements (totarol 0.0007%, 16 h): 0.445
- Inoculation cfu/ml (totarol 0.0007%, 24 h): 2.1 × 10^7 cfu/ml
- OD, average of 3 measurements (totarol 0.0007%, 24 h): 0.602
- Inoculation cfu/ml (totarol 0.0013%, 0 h): 4 × 10^5 cfu/ml
- OD, average of 3 measurements (totarol 0.0013%, 0 h): 0.293
- Inoculation cfu/ml (totarol 0.0013%, 8 h): 6 × 10^4 cfu/ml
- OD, average of 3 measurements (totarol 0.0013%, 8 h): 0.297
- Inoculation cfu/ml (totarol 0.0013%, 16 h): 6 × 10^4 cfu/ml
- OD, average of 3 measurements (totarol 0.0013%, 16 h): 0.399
- Inoculation cfu/ml (totarol 0.0013%, 24 h): 1 × 10^7 cfu/ml
- OD, average of 3 measurements (totarol 0.0013%, 24 h): 0.549
- Inoculation cfu/ml (totarol 0.0025%, 0 h): 5 × 10^5 cfu/ml
- OD, average of 3 measurements (totarol 0.0025%, 0 h): 0.284
- Inoculation cfu/ml (totarol 0.0025%, 8 h): 0 cfu/ml
- OD, average of 3 measurements (totarol 0.0025%, 8 h): 0.297
- Inoculation cfu/ml (totarol 0.0025%, 16 h): 0 cfu/ml
- OD, average of 3 measurements (totarol 0.0025%, 16 h): 0.295
- Inoculation cfu/ml (totarol 0.0025%, 24 h): 0 cfu/ml
- OD, average of 3 measurements (totarol 0.0025%, 24 h): 0.302
- Inoculation cfu/ml (totarol 0.005%, 0 h): 6 × 10^5 cfu/ml
- OD, average of 3 measurements (totarol 0.005%, 0 h): 0.302
- Inoculation cfu/ml (totarol 0.005%, 8 h): 0 cfu/ml
- OD, average of 3 measurements (totarol 0.005%, 8 h): 0.349
- Inoculation cfu/ml (totarol 0.005%, 16 h): 0 cfu/ml
- OD, average of 3 measurements (totarol 0.005%, 16 h): 0.320
- Inoculation cfu/ml (totarol 0.005%, 24 h): 0 cfu/ml
- OD, average of 3 measurements (totarol 0.005%, 24 h): 0.296
- Inoculation cfu/ml (totarol 0.01%, 0 h): 4.1 × 10^5 cfu/ml
- OD, average of 3 measurements (totarol 0.01%, 0 h): 0.302
- Inoculation cfu/ml (totarol 0.01%, 8 h): 0 cfu/ml
- OD, average of 3 measurements (totarol 0.01%, 8 h): 0.419
- Inoculation cfu/ml (totarol 0.01%, 16 h): 0 cfu/ml
- OD, average of 3 measurements (totarol 0.01%, 16 h): 0.368
- Inoculation cfu/ml (totarol 0.01%, 24 h): 0 cfu/ml
- OD, average of 3 measurements (totarol 0.01%, 24 h): 0.306
- Inoculation cfu/ml (totarol 0.02%, 0 h): 3.1 × 10^5 cfu/ml
- OD, average of 3 measurements (totarol 0.02%, 0 h): 0.322
- Inoculation cfu/ml (totarol 0.02%, 8 h): 0 cfu/ml
- OD, average of 3 measurements (totarol 0.02%, 8 h): 0.384
- Inoculation cfu/ml (totarol 0.02%, 16 h): 0 cfu/ml
- OD, average of 3 measurements (totarol 0.02%, 16 h): 0.374
- Inoculation cfu/ml (totarol 0.02%, 24 h): 0 cfu/ml
- OD, average of 3 measurements (totarol 0.02%, 24 h): 0.371
- Inoculation cfu/ml (totarol 0.04%, 0 h): 2.6 × 10^5 cfu/ml
- OD, average of 3 measurements (totarol 0.04%, 0 h): 0.552
- Inoculation cfu/ml (totarol 0.04%, 8 h): 0 cfu/ml
- OD, average of 3 measurements (totarol 0.04%, 8 h): 0.667
- Inoculation cfu/ml (totarol 0.04%, 16 h): 0 cfu/ml
- OD, average of 3 measurements (totarol 0.04%, 16 h): 0.555
- Inoculation cfu/ml (totarol 0.04%, 24 h): 0 cfu/ml
- OD, average of 3 measurements (totarol 0.04%, 24 h): 0.538
- Inoculation cfu/ml (totarol 0.08%, 0 h): 3.2 × 10^5 cfu/ml
- OD, average of 3 measurements (totarol 0.08%, 0 h): 0.448
- Inoculation cfu/ml (totarol 0.08%, 8 h): 0 cfu/ml
- OD, average of 3 measurements (totarol 0.08%, 8 h): 0.539
- Inoculation cfu/ml (totarol 0.08%, 16 h): 0 cfu/ml
- OD, average of 3 measurements (totarol 0.08%, 16 h): 0.499
- Inoculation cfu/ml (totarol 0.08%, 24 h): 0 cfu/ml
- OD, average of 3 measurements (totarol 0.08%, 24 h): 0.491
- Inoculation cfu/ml (totarol 0.16%, 0 h): 6 × 10^5 cfu/ml
- OD, average of 3 measurements (totarol 0.16%, 0 h): 0.638
- Inoculation cfu/ml (totarol 0.16%, 8 h): 0 cfu/ml
- OD, average of 3 measurements (totarol 0.16%, 8 h): 0.651
- Inoculation cfu/ml (totarol 0.16%, 16 h): 0 cfu/ml
- OD, average of 3 measurements (totarol 0.16%, 16 h): 0.510
- Inoculation cfu/ml (totarol 0.16%, 24 h): 0 cfu/ml
- OD, average of 3 measurements (totarol 0.16%, 24 h): 0.369
